Results taken from US12709596B2, “Molecules” (ENA Respiratory Pty Ltd, priority 2019, dated 2026).

Experiments:
human TLR2 (hTLR2) = biological target: T1, human TLR2 (hTLR2) (Homo sapiens, UniProt O60603); experiment: HEK-BLUE-hTLR2 cell assay (NF-kB induced SEAP, read at 620 nm); assay type: cell-based; details: HEK-BLUE-hTLR2 cells, 16 hr
T1 construct: host or cells: HEK293 (HEK-BLUE-hTLR2)
Protocol: The potency of the compounds as activators of human TLR-2s is tested in an in vitro assay in HEK-BLUE-hTLR2 cells.
HEK-BLUE-hTLR2 cells are designed for studying the stimulation of human TLR2 (hTLR2) by monitoring the activation of NF-kB. HEK-BLUE-hTLR2 cells are obtained by co-transfection of the hTLR2 and SEAP (secreted embryonic alkaline phosphatase) reporter genes into HEK293 cells. Stimulation with a TLR2 ligand activates NF-kB which induces the production of SEAP.
HEK-BLUE-hTLR2 cells were purchased from InvivoGen (San Diego, CA, USA). Cells were grown in DMEM supplemented with 10% FCS, 100 U/ml penicillin, 100 ug/ml streptomycin and 2 mM L-glutamine, 100 μg/mL Normocin in the presence of selection antibiotic purchased from InvivoGen and passaged when 70% confluence was reached per manufacturer's recommendation. […]

[1] = Stability II: 9 day stability under accelerated conditions in EDTA/saline pH 5 by HPLC; assay type: physicochemical; details: 40° C./75% RH, 9 days
Protocol: Stability was measured using reversed phase HPLC with a UV detector analytical wavelength of 205 nm. Peak areas of each compound at the 9 day time point were compared with areas at time zero. Compound stability at day 9 was calculated as a percentage of the time zero peak area data. Compound stability was further assessed by comparison with a reference sample of the same compound. […] Thawed samples were sonicated and measured by HPLC.

T1 sequence (O60603 21-784): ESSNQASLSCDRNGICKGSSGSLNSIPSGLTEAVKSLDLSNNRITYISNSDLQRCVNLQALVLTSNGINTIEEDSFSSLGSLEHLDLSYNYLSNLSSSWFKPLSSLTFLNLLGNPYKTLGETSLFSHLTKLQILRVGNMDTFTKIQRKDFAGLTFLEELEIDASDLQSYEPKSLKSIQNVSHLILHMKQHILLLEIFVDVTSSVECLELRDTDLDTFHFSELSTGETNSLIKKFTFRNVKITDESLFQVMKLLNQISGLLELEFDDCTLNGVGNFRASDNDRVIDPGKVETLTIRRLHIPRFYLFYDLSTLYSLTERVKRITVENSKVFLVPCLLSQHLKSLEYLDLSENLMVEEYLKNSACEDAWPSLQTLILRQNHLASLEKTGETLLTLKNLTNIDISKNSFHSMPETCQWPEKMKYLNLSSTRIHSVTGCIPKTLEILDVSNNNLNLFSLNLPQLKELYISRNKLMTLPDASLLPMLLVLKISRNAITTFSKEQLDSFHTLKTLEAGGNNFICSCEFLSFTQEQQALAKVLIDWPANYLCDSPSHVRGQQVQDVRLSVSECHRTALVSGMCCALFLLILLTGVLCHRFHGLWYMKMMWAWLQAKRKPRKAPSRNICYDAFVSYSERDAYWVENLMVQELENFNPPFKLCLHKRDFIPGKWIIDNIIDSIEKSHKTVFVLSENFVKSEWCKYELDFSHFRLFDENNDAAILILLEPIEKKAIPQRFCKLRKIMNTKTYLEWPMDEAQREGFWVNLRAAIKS
T1 sequence (Q9Y2C9 32-796 partner): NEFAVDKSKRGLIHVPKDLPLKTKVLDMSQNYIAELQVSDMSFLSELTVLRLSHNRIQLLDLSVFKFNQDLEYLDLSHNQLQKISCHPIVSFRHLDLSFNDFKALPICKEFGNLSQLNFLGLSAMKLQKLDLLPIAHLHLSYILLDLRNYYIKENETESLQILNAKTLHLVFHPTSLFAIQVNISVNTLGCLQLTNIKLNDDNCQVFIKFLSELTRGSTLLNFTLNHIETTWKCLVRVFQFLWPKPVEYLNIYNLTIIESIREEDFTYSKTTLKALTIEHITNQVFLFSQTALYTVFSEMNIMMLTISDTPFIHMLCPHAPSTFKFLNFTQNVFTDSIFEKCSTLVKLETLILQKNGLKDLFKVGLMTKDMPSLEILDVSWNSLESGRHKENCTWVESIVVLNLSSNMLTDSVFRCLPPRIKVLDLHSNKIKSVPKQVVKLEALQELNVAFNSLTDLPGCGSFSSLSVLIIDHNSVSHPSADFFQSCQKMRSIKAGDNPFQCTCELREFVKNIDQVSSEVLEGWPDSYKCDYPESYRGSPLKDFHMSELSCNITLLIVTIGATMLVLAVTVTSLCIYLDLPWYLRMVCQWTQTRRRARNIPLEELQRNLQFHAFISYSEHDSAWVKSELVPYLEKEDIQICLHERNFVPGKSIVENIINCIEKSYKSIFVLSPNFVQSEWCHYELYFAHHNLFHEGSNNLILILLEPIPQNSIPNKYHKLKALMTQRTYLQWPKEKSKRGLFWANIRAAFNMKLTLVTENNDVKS

TLR2 activity (HEK-BLUE-hTLR2 assay, FIG. 4) (human TLR2 (hTLR2)): significant activity at TLR2 | stability over the 9 day test period ([1]; pH 5 EDTA/saline): substantial stability | stability under the accelerated conditions relative to comparator compound ([1]; versus compound (8) of WO2019/119067): superior stability
SMILES: CCCCCCCCCCCCCCC(C)C(=O)OCC[C@H](CSC[C@H](N)C(=O)N[C@@H](CO)C(=O)NCCOCCOCCOCCOCCOCCOCCOCCOCCOCCOCCOCCOCCOCCOCCOCCOCCOCCOCCOCCOCCOCCOCCOCCOCCOCCOCCOCCOCCC(=O)NCC(N)=O)OC(=O)C(C)CCCCCCCCCCCCCC (stereo partly drawn) [Compound 36]
